Legend:
Type in all cases: in vivo
[1] = tested on: Italian ryegrass (Lolium multiflorum); experiment: Test B pre-/postemergence plant response
Outline: (§1)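 Visual injury rating, 0 (no effect) to 100 (complete control), vs untreated controls after ~10 d greenhouse. Pre: directed soil spray after planting in loam/sand. Post: plants 2–10 cm, 1–2 leaf stage. Compound in non-phytotoxic solvent plus surfactant.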

kochia (Kochia scoparia) = experiment: Test B pre-/postemergence plant response
Outline: as §1

[2] = tested on: ragweed (common ragweed, Ambrosia elatior); experiment: Test B pre-/postemergence plant response
Outline: as §1

[3] = tested on: waterhemp (common waterhemp, Amaranthus rudis); experiment: Test D pre-/postemergence plant response
Outline: (§2)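 Seeds sown in loam–sand blend got preemergence sprays of test chemicals in a non-phytotoxic solvent with surfactant; postemergence sprays went on plants at 1- to 4-leaf stage (2 to 18 cm) in peat/vermiculite medium. After 13 to 15 days in greenhouse, visual injury versus controls scored 0 (no effect) to 100 (complete control).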

[4] = tested on: large (Lg) crabgrass (Digitaria sanguinalis); experiment: Test D pre-/postemergence plant response
Outline: as §2

[5] = tested on: Italian ryegrass (Lolium multiflorum); experiment: Test D pre-/postemergence plant response
Outline: as §2

soybean (Glycine max) = experiment: Test D pre-/postemergence plant response
Outline: as §2

[6] = tested on: giant foxtail (Setaria faberii); experiment: Test D pre-/postemergence plant response
Outline: as §2

[7] = tested on: barnyardgrass (Echinochloa crus-galli); experiment: Test D pre-/postemergence plant response
Outline: as §2

[8] = tested on: lambsquarters (Chenopodium album); experiment: Test D pre-/postemergence plant response
Outline: as §2

[9] = tested on: pigweed (Amaranthus retroflexus); experiment: Test D pre-/postemergence plant response
Outline: as §2

[10] = tested on: velvetleaf (Abutilon theophrasti); experiment: Test D pre-/postemergence plant response
Outline: as §2

corn (Zea mays) = experiment: Test D pre-/postemergence plant response
Outline: as §2

[11] = tested on: blackgrass (Alopecurus myosuroides); experiment: Test D pre-/postemergence plant response
Outline: as §2

[12] = tested on: morningglory (Ipomoea coccinea); experiment: Test D pre-/postemergence plant response
Outline: as §2

[13] = 31 g ai/ha, Postemergence, 0 to 100 scale, 0 no effect, 100 complete control
[14] = 31 g ai/ha, Preemergence, 0 to 100 scale where 0 is no effect and 100 is complete control
[15] = 125 g ai/ha, postemergence, 0 to 100 scale, 0 no effect, 100 complete control
[16] = Postemergence, 16 g ai/ha, scale 0 to 100 (0 no effect, 100 complete control)
[17] = Postemergence, 31 g ai/ha, scale 0 to 100 (0 no effect, 100 complete control)
[18] = Postemergence, 62 g ai/ha, scale 0 to 100, 0 no effect, 100 complete control
[19] = Postemergence, 125 g ai/ha, scale 0 to 100, 0 no effect, 100 complete control
[20] = Preemergence, 16 g ai/ha, scale 0 to 100 (0 no effect, 100 complete control)
[21] = Preemergence, 31 g ai/ha, scale 0 to 100 (0 no effect, 100 complete control)
[22] = Preemergence, 62 g ai/ha, scale 0 to 100 (0 no effect, 100 complete control)
[23] = Postemergence, 31 g ai/ha, 0 to 100 scale (0 no effect, 100 complete control)
[24] = Preemergence, 125 g ai/ha, 0 to 100 scale (0 no effect, 100 complete control)

## Fc1cccc(Oc2ncc(Br)cn2)c1-c1cc(C(F)F)on1 [Compound 118]
[1]; [13]
  Plant response rating, Ryegrass, Italian: 20
[1]; [14]
  Plant response rating, Ryegrass, Italian: 20
[1]; [15]
  Plant response rating, Ryegrass, Italian: 80
Kochia (Kochia scoparia); [13]
  Plant response rating, Kochia: 100
Kochia (Kochia scoparia); [14]
  Plant response rating, Kochia: 80
Kochia (Kochia scoparia); [15]
  Plant response rating, Kochia: 100
Kochia (Kochia scoparia); Preemergence, 125 g ai/ha, 0 to 100 scale where 0 is no effect and 100 is complete control
  Plant response rating, Kochia: 100
[2]; [13]
  Plant response rating, Ragweed: 30
[2]; [14]
  Plant response rating, Ragweed: 20
[2]; [15]
  Plant response rating, Ragweed: 50
[3]; [16]
  Waterhemp plant response rating: 85
[3]; [17]
  Waterhemp plant response rating: 90
[3]; [18]
  Plant response rating, Waterhemp: 95
[3]; [19]
  Plant response rating, Waterhemp: 98
[3]; Preemergence, 125 g ai/ha
  Plant response rating (scale 0 to 100), Waterhemp: 100
[3]; [20]
  Plant response rating, Waterhemp: 100
[3]; [21]
  Plant response rating, Waterhemp: 100
[3]; [22]
  Plant response rating, Waterhemp: 100
[4]; [16]
  Crabgrass, Large plant response rating: 10
[4]; [17]
  Crabgrass, Large plant response rating: 10
[4]; [18]
  Plant response rating, Crabgrass, Large: 15
[4]; [19]
  Plant response rating, Crabgrass, Large: 20
[4]; Preemergence, 125 g ai/ha
  Plant response rating (scale 0 to 100), Crabgrass, Large: 100
[4]; [20]
  Plant response rating, Crabgrass, Large: 100
[4]; [21]
  Plant response rating, Crabgrass, Large: 100
[4]; [22]
  Plant response rating, Crabgrass, Large: 100
[5]; [16]
  Ryegrass, Italian plant response rating: 0
[5]; [17]
  Ryegrass, Italian plant response rating: 0
[5]; [18]
  Plant response rating, Ryegrass, Italian: 5
[5]; [19]
  Plant response rating, Ryegrass, Italian: 5
[5]; Preemergence, 125 g ai/ha
  Plant response rating (scale 0 to 100), Ryegrass, Italian: 60
[5]; [20]
  Plant response rating, Ryegrass, Italian: 0
[5]; [21]
  Plant response rating, Ryegrass, Italian: 5
[5]; [22]
  Plant response rating, Ryegrass, Italian: 65
Soybean (Glycine max); [16]
  Soybean plant response rating: 75
Soybean (Glycine max); [17]
  Soybean plant response rating: 60
Soybean (Glycine max); [18]
  Plant response rating, Soybean: 60
Soybean (Glycine max); [19]
  Plant response rating, Soybean: 90
Soybean (Glycine max); Preemergence, 125 g ai/ha
  Plant response rating (scale 0 to 100), Soybean: 95
Soybean (Glycine max); [20]
  Plant response rating, Soybean: 80
Soybean (Glycine max); [21]
  Plant response rating, Soybean: 75
Soybean (Glycine max); [22]
  Plant response rating, Soybean: 80
[6]; [16]
  Foxtail, Giant plant response rating: 5
[6]; [17]
  Foxtail, Giant plant response rating: 15
[6]; [18]
  Plant response rating, Foxtail, Giant: 10
[6]; [19]
  Plant response rating, Foxtail, Giant: 20
[6]; Preemergence, 125 g ai/ha
  Plant response rating (scale 0 to 100), Foxtail, Giant: 100
[6]; [20]
  Plant response rating, Foxtail, Giant: 98
[6]; [21]
  Plant response rating, Foxtail, Giant: 100
[6]; [22]
  Plant response rating, Foxtail, Giant: 100
[7]; [16]
  Barnyardgrass plant response rating: 10
[7]; [17]
  Barnyardgrass plant response rating: 20
[7]; [18]
  Plant response rating, Barnyardgrass: 20
[7]; [19]
  Plant response rating, Barnyardgrass: 30
[7]; Preemergence, 62 g ai/ha
  Plant response rating (scale 0 to 100), Barnyardgrass: 100
[7]; Preemergence, 125 g ai/ha
  Plant response rating (scale 0 to 100), Barnyardgrass: 100
[7]; [20]
  Plant response rating, Barnyardgrass: 10
[7]; [21]
  Plant response rating, Barnyardgrass: 60
[8]; [16]
  Lambsquarters plant response rating: 75
[8]; [17]
  Lambsquarters plant response rating: 85
[8]; [18]
  Plant response rating, Lambsquarters: 90
[8]; [19]
  Plant response rating, Lambsquarters: 95
[8]; Preemergence, 125 g ai/ha
  Plant response rating (scale 0 to 100), Lambsquarters: 98
[8]; [20]
  Plant response rating, Lambsquarters: 90
[8]; [21]
  Plant response rating, Lambsquarters: 90
[8]; [22]
  Plant response rating, Lambsquarters: 95
[9]; [16]
  Pigweed plant response rating: 80
[9]; [17]
  Pigweed plant response rating: 95
[9]; [18]
  Plant response rating, Pigweed: 95
[9]; [19]
  Plant response rating, Pigweed: 98
[9]; Preemergence, 125 g ai/ha
  Plant response rating (scale 0 to 100), Pigweed: 100
[9]; [20]
  Plant response rating, Pigweed: 100
[9]; [21]
  Plant response rating, Pigweed: 100
[9]; [22]
  Plant response rating, Pigweed: 100
[10]; [16]
  Velvetleaf plant response rating: 65
[10]; [17]
  Velvetleaf plant response rating: 75
[10]; [18]
  Plant response rating, Velvetleaf: 70
[10]; [19]
  Plant response rating, Velvetleaf: 85
[10]; Preemergence, 125 g ai/ha
  Plant response rating (scale 0 to 100), Velvetleaf: 100
[10]; [20]
  Plant response rating, Velvetleaf: 80
[10]; [21]
  Plant response rating, Velvetleaf: 70
[10]; [22]
  Plant response rating, Velvetleaf: 100
Corn (Zea mays); [16]
  Corn plant response rating: 5
Corn (Zea mays); [17]
  Corn plant response rating: 10
Corn (Zea mays); [18]
  Plant response rating, Corn: 15
Corn (Zea mays); [19]
  Plant response rating, Corn: 15
Corn (Zea mays); Preemergence, 125 g ai/ha
  Plant response rating (scale 0 to 100), Corn: 30
Corn (Zea mays); [20]
  Plant response rating, Corn: 0
Corn (Zea mays); [21]
  Plant response rating, Corn: 5
Corn (Zea mays); [22]
  Plant response rating, Corn: 30
[11]; [16]
  Blackgrass plant response rating: 5
[11]; [17]
  Blackgrass plant response rating: 10
[11]; [18]
  Plant response rating, Blackgrass: 15
[11]; [19]
  Plant response rating, Blackgrass: 35
[11]; Preemergence, 125 g ai/ha
  Plant response rating (scale 0 to 100), Blackgrass: 90
[11]; [20]
  Plant response rating, Blackgrass: 0
[11]; [21]
  Plant response rating, Blackgrass: 10
[11]; [22]
  Plant response rating, Blackgrass: 60
[12]; [16]
  Morningglory plant response rating: 85
[12]; [17]
  Morningglory plant response rating: 85
[12]; [18]
  Plant response rating, Morningglory: 85
[12]; [19]
  Plant response rating, Morningglory: 80
[12]; Preemergence, 125 g ai/ha
  Plant response rating (scale 0 to 100), Morningglory: 90
[12]; [20]
  Plant response rating, Morningglory: 30
[12]; [21]
  Plant response rating, Morningglory: 5
[12]; [22]
  Plant response rating, Morningglory: 85

## FC(F)(Br)c1cc(-c2ccccc2Oc2ncc(Cl)cn2)no1 [Compound 162]
[1]; [14]
  Plant response rating, Ryegrass, Italian: 0
[1]; [15]
  Plant response rating, Ryegrass, Italian: 50
[1]; [23]
  Plant response rating, Ryegrass, Italian: 0
[1]; [24]
  Ryegrass, Italian plant response rating: 40
Kochia (Kochia scoparia); [14]
  Plant response rating, Kochia: 70
Kochia (Kochia scoparia); [15]
  Plant response rating, Kochia: 100
Kochia (Kochia scoparia); [23]
  Plant response rating, Kochia: 90
Kochia (Kochia scoparia); [24]
  Kochia plant response rating: 70
[2]; [14]
  Plant response rating, Ragweed: 0
[2]; [15]
  Plant response rating, Ragweed: 40
[2]; [23]
  Plant response rating, Ragweed: 0
[2]; [24]
  Ragweed plant response rating: 20
[3]; [17]
  Waterhemp plant response rating: 98
[3]; [18]
  Plant response rating, Waterhemp: 100
[3]; [19]
  Plant response rating, Waterhemp: 100
[4]; [16]
  Crabgrass, Large plant response rating: 5
[4]; [17]
  Crabgrass, Large plant response rating: 5
[4]; [18]
  Plant response rating, Crabgrass, Large: 10
[4]; [19]
  Plant response rating, Crabgrass, Large: 20
[5]; [17]
  Ryegrass, Italian plant response rating: 0
[5]; [18]
  Plant response rating, Ryegrass, Italian: 5
[5]; [19]
  Plant response rating, Ryegrass, Italian: 5
Soybean (Glycine max); [17]
  Soybean plant response rating: 10
Soybean (Glycine max); [18]
  Plant response rating, Soybean: 40
Soybean (Glycine max); [19]
  Plant response rating, Soybean: 50
[6]; [16]
  Foxtail, Giant plant response rating: 10
[6]; [17]
  Foxtail, Giant plant response rating: 10
[6]; [18]
  Plant response rating, Foxtail, Giant: 10
[6]; [19]
  Plant response rating, Foxtail, Giant: 20
[7]; [16]
  Barnyardgrass plant response rating: 5
[7]; [17]
  Barnyardgrass plant response rating: 10
[7]; [18]
  Plant response rating, Barnyardgrass: 15
[7]; [19]
  Plant response rating, Barnyardgrass: 15
[8]; [17]
  Lambsquarters plant response rating: 65
[8]; [18]
  Plant response rating, Lambsquarters: 75
[8]; [19]
  Plant response rating, Lambsquarters: 95
[9]; [17]
  Pigweed plant response rating: 90
[9]; [18]
  Plant response rating, Pigweed: 100
[9]; [19]
  Plant response rating, Pigweed: 100
[10]; [17]
  Velvetleaf plant response rating: 40
[10]; [18]
  Plant response rating, Velvetleaf: 75
Corn (Zea mays); [16]
  Corn plant response rating: 5
Corn (Zea mays); [17]
  Corn plant response rating: 5
Corn (Zea mays); [18]
  Plant response rating, Corn: 5
Corn (Zea mays); [19]
  Plant response rating, Corn: 5
[11]; [16]
  Blackgrass plant response rating: 0
[11]; [17]
  Blackgrass plant response rating: 30
[11]; [18]
  Plant response rating, Blackgrass: 30
[11]; [19]
  Plant response rating, Blackgrass: 45
[12]; [17]
  Morningglory plant response rating: 65
[12]; [18]
  Plant response rating, Morningglory: 75
[12]; [19]
  Plant response rating, Morningglory: 75

Source: patent publication US10131652B2, “Pyrimidinyloxy benzene derivatives as herbicides” (E. I. DU PONT DE NEMOURS AND COMPANY, priority 2014, dated 2018)
